What all share (experiment): DTP human tumour cell line panel, 48 h
Experiment [1] relates to ACHN.
Experiment [2] concerns EKVX.
Experiment [3] deals with MOLT-4.
The test system of experiment [4] is CAKI-1.
Experiment [5] concerns A549.
Experiment [6] relates to SF-295.
In experiment [7] the test system is U-251.
Experiment [8] concerns Hs-578T.
Experiment [9] relates to HCT-15.
The subject of experiment [10] is SR.
Experiment [11] deals with NCI-H23.
The test system of experiment [12] is TK-10.
Experiment [13] has as its system NCI-H522.
Experiment [14] relates to UACC-62.
In experiment [15] the test system is OVCAR-4.
Experiment [16] relates to NCI/ADR-RES.
For experiment [17], the system named is OVCAR-8.
Experiment [18] relates to MDA-N.
The test system of experiment [19] is NCI-H226.
Experiment [20] concerns HCC 2998.

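In this assay, cells in 96-well plates receive the compound at five concentrations for 48 hours. Endpoints are linearly interpolated between the surrounding concentrations. GI50 = concentration required for 50% inhibition of growth.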 Active and inactive are the calls of the source. Cut-off read from the data, not from the text of the source: active = GI50 up to about 1.1 µM and inactive = higher.

As usually defined, the GI50 is the concentration at which growth is held to half of that of the control. On to `NCCSCc1ccccc1Cl`, for which the GI50 in experiment [1] was > 100 µM (inactive); in experiment [2], 34.3 µM (inactive); in experiment [3] it was 31 µM (inactive); in experiment [4], > 100 µM (inactive); in experiment [5], > 100 µM (inactive); in experiment [6], 41.1 µM (inactive). The GI50 in experiment [7] is 31.6 µM (inactive); in experiment [8], 73.5 µM (inactive); in [9], greater than 100 µM; in [10] it was 18.6 µM (inactive); in experiment [11], 30.1 µM (inactive); in [12] it was 26.4 µM (inactive). The GI50 in experiment [13] was 48.2 µM (inactive); in experiment [14], 53.6 µM (inactive); in [15], 64.9 µM (inactive); in [16], > 100 µM (inactive); in experiment [17] it was 43.3 µM (inactive); in experiment [18], 30.5 µM (inactive). In addition, the GI50 is > 100 µM (inactive) in experiment [19] and 18.6 µM (inactive) in experiment [20].
On to `O=C(NNc1ccccc1)c1ccc(Cl)c(Cl)c1`, for which the GI50 is 11.3 µM (inactive) in experiment [1]; 4.39 µM (inactive) in experiment [2]; 21.5 µM (inactive) in experiment [3]; 0.259 µM (active) in [4]; 6.59 µM (inactive) in [5]; 0.0676 µM (active) in experiment [6]. Also, the GI50 in experiment [7] is 18.2 µM (inactive); in experiment [8], 28.5 µM (inactive); in experiment [9], 15.5 µM; in experiment [10] it was 20.3 µM (inactive); in [11] it was 34.4 µM (inactive); in experiment [12], 20.7 µM (inactive). Moreover, the GI50 in experiment [13] was 0.574 µM (active); in experiment [14] it was 0.0667 µM (active); in [15], 16.2 µM (inactive); in experiment [16], 5.25 µM (inactive); in experiment [17], 21.2 µM (inactive); in experiment [18], 0.122 µM (active). Further, the GI50 in experiment [19] is 29.9 µM (inactive); in experiment [20], 2.31 µM (inactive).
On to `NS(=O)(=O)c1ccc(NC(NC(=O)C(C(F)(F)F)C(F)(F)F)(C(F)(F)F)C(F)(F)F)cc1`, for which the GI50 in experiment [1], in experiment [2], in experiment [3], in [4], in experiment [5] and in experiment [6] was > 100 µM (inactive) each time. For the same molecule, the GI50 in experiment [7] is > 100 µM (inactive); in experiment [8], > 100 µM (inactive); in [9], greater than 100 µM; in [10], > 100 µM (inactive); in experiment [11] it was > 100 µM (inactive); in experiment [12] it was 0.305 µM (active). In addition, the GI50 in experiment [13], in [14], in [15], in experiment [16], in experiment [17] and in [18] was > 100 µM (inactive) each time. Further, the GI50 in [19] and in [20] was > 100 µM (inactive) in each case.
For the molecule `Cc1cccc2c(N)c3cccc(C(=O)NCC[N+](C)(C)Cc4ccccc4[N+](=O)[O-])c3nc12`, the GI50 was 2.31 µM (inactive) in [1]; 31.5 µM (inactive) in experiment [2]; 1.09 µM (active) in experiment [3]; 5.71 µM (inactive) in experiment [4]; 2.24 µM (inactive) in [5]; 6.32 µM (inactive) in experiment [6]. In addition, the GI50 in experiment [7] was 5 µM (inactive); in [8], 6.35 µM (inactive); in [9], greater than 20.3 µM; in experiment [10], 0.258 µM (active); in [11] it was 5.22 µM (inactive); in experiment [12], 6.62 µM (inactive). Moreover, the GI50 is 4.94 µM (inactive) in experiment [13]; 8.05 µM (inactive) in [14]; 8.32 µM (inactive) in experiment [15]; 8.67 µM (inactive) in [16]; 5.89 µM (inactive) in experiment [17]; 16.9 µM (inactive) in [18]. For the same molecule, the GI50 in [19] was 3.94 µM (inactive); in [20] it was 9.06 µM (inactive).
As for `O=C(Nc1ccc(Cl)c(C(F)(F)F)c1)C(=O)c1c(O)c2ccccc2oc1=O`, the GI50 in experiment [1], in experiment [2], in [3], in experiment [4], in experiment [5] and in experiment [6] was > 100 µM (inactive) in each case. The GI50 in experiment [7] was > 100 µM (inactive); in [8], > 100 µM (inactive); in experiment [9] it was greater than 100 µM; in experiment [10], > 100 µM (inactive); in experiment [11] it was > 100 µM (inactive); in experiment [12], > 100 µM (inactive). In addition, the GI50 in [13], in experiment [14], in experiment [15], in experiment [16], in experiment [17] and in experiment [18] was > 100 µM (inactive) in each case. The GI50 in experiment [19] and in experiment [20] was > 100 µM (inactive) in each case.
Consider `CCOC(=O)c1c(O)cn2c1[nH]c1cccc3cccc2c31`, for which the GI50 in experiment [1] is 52.4 µM (inactive); in [2], > 100 µM (inactive); in experiment [3], 44.2 µM (inactive); in experiment [4], > 100 µM (inactive); in experiment [5], > 100 µM (inactive); in experiment [6], 87.5 µM (inactive). Besides, the GI50 in experiment [7] is 63.4 µM (inactive); in experiment [8] it was > 100 µM (inactive); in [9], 54.6 µM; in [10], 50.5 µM (inactive); in [11], 62.4 µM (inactive); in [12], > 100 µM (inactive). The GI50 in experiment [13] was 46.5 µM (inactive); in experiment [14] it was > 100 µM (inactive); in experiment [15], > 100 µM (inactive); in [16], > 100 µM (inactive); in [17], 44.1 µM (inactive); in [18] it was > 100 µM (inactive). In addition, the GI50 in experiment [19] was > 100 µM (inactive); in experiment [20], 64.7 µM (inactive).
Take `C/C=C/[C@@H](C(=O)OC)N1C(=O)c2ccccc2[C@H]1O`: the GI50 in experiment [1], in experiment [2], in experiment [3], in experiment [4], in experiment [5] and in experiment [6] was > 100 µM (inactive) throughout. The GI50 in experiment [7] was > 100 µM (inactive); in experiment [8], > 100 µM (inactive); in experiment [9] it was greater than 100 µM; in [10] it was > 100 µM (inactive); in [11], > 100 µM (inactive); in experiment [12], > 100 µM (inactive). Besides, the GI50 in [13], in experiment [14], in [15], in experiment [16], in [17] and in [18] was > 100 µM (inactive) each time. The GI50 in experiment [19] and in experiment [20] was > 100 µM (inactive) in each case.
